Like-named read-outs stand apart in the source and are kept apart here.
What was measured:
human serum albumin = molecular target: T1, human serum albumin (Homo sapiens, UniProt P02768); experiment: Plasma protein binding on immobilized human serum albumin column; type: in vitro ADME; conditions: immobilized HSA column
T1 construct: purchased ChromTech Chiral‐HSA, 50 × 3.0 mm, 5 µm
Excerpt: Plasma protein binding was estimated using an immobilized human serum albumin column (ChromTech Chiral‐HSA, 50 × 3.0 mm, 5 µm) with gradient elution based on a previously published method 56.

[1] = test system: Tfn-A594 uptake in U2OS cells; experiment: Automated quantitative CME assay: Tfn-A594 uptake; type: cell-based; conditions: for recovery of normal non-neuronal CME after wash out: 10 μM for 30 min; for fold less potent CME inhibition in presence of serum protein: 5 or 10% FBS or 1% BSA versus none; for IC50: Homo sapiens
Procedure: To determine whether the Dyngo compounds are widespread cell‐permeable and endocytosis inhibitors, CME of fluorescent Tfn was compared in an automated quantitative endocytosis assay in U2OS cells. The assay consisted of over 1200 cells under serum‐free conditions; after preincubation with each analog for 30 min the uptake of fluorescent Tfn was measured. We refer to this endocytosis as non‐neuronal CME to distinguish it from CME of synaptic vesicles in presynaptic terminals of neurons, which is referred to as synaptic vesicle endocytosis (SVE). In these cells, Tfn uptake is presumed to be mediated by dynamin II, because this is the only isoform of dynamin that they express, as determined by western blot (Figure S6). […] There was no apparent correlation between in vitro and in‐cell activity, with potent dynamin‐active compounds like 1a and 14a having no effect on non‐neuronal CME (Table 1). This might be explained by low membrane permeability of these analogs, their cellular metabolism or rapid cellular efflux mechanisms.
Quantitative analysis of the inhibition of Alexa 594‐Tfn endocytosis in U2OS cells was performed on large numbers of serum‐starved cells as described 10. Synaptic vesicle recycling in cultured CGNs was monitored using FM1‐43 as described 57 (see Supporting Information). Dynamin‐independent endocytosis was measured using internalization of CT in NIH3T3 cells (using Tfn as a control) as described previously 58 with minor changes (see Supporting Information). The average number of cells for each data point was ˜1200. IC50 values were calculated using GraphPad Prism 5 and data were expressed as mean ± 95% confidence interval (CI) for three wells and ˜1200 cells.

rat brain synaptosomes = experiment: Synaptic vesicle endocytosis: FM4-64 uptake in synaptosomes; conditions: read-out: SVE IC50
[2] = MTT growth inhibition assay; type: cell-based; conditions: human
Procedure: A 30 mM stock solution of each test compound was prepared in dimethylsulphoxide (DMSO) and stored at −20 °C. All cell lines were cultured at 37 °C, under 5% CO2 in air and were maintained in Dulbecco’s modified Eagle’s medium (Trace Biosciences, Australia) supplemented with 10% foetal bovine serum, 10 mM sodium bicarbonate penicillin (100 IU/mL), streptomycin (100 µg/mL), and glutamine (4 mM). Cells in logarithmic growth were transferred to 96-well plates. Cytotoxicity was determined by plating cells in duplicate in […] medium at a density of 2,500–4,000 cells/well. On day 0, (24 h after plating) when the cells were in logarithmic growth, 100 μL medium with or without the test agent was added to each well. After 72 h drug exposure, growth inhibitory effects were evaluated using the MTT (3-[4,5-dimethyltiazol-2-yl]-2,5-diphenyl-tetrazolium bromide) assay and absorbance read at 540 nm. A dose response curve was produced allowing for the calculation of a GI50 value. This value is the drug concentration at which cell growth is inhibited by 50% based on the difference between the optical density values on day 0 and those at the end of drug exposure.

HeLa cells = experiment: Trypan blue exclusion cell viability and proliferation assay; type: cell-based; conditions: 20 h exposure, with or without serum
Procedure: Cell viability and membrane integrity was assessed by the Trypan Blue exclusion assay. Cells were seeded into 10 cm dish at a density of 1 × 10^5 cells per dish. […] This was carried out in the presence and absence of FBS.

[3] = molecular target: T2, AP-2 alpha ear binding to amphiphysin 1 (Mus musculus, UniProt P17427); experiment: ELISA-based AP-2 binding assay
T2 construct: GST-AP-2 α-appendage (amino acids 702–938); made in house; host or cells: bacteria
T2 sequence (P17427 702-938): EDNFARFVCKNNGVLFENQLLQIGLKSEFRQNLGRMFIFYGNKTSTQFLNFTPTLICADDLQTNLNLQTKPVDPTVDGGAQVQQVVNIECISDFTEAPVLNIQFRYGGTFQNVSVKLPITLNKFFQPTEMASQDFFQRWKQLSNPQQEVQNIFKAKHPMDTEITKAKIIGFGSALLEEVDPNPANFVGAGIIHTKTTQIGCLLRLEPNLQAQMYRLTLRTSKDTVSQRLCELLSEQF
Procedure: The assay for the interaction of amphiphysin with either clathrin or AP2 was based on our previous report (11). Bacterially expressed recombinant purified His6-tagged amphiphysin 1 PRD+CLAP domains (amino acids 250-578) in screening buffer (20 mM HEPES, pH 7.4, 50 mM NaCl, 1 mM DTT, 1 mM PMSF) was added to a 384 well ELISA plate (high-binding PS Microplate, Greiner Bio-One) and bound to the plastic at room temperature for 1 hr. Non-specific binding was reduced by overnight incubation with 50 µL blocking buffer (20 mM HEPES, pH 7.4, 50 mM NaCl, 1 mM PMSF, 2 % BSA, 2.5 % skim milk) at 4 °C. Following extensive washes (with 20 mM HEPES, pH 7.4, 50 mM NaCl, 0.05 % Tween 20), chemical compounds diluted in DMSO (10 µL) were added and incubated together with bacterially expressed recombinant GST-tagged clathrin heavy chain TD (amino acids 1-364) or GST-AP-2 α-appendage (amino acids 702–938) for 1 hr at room temperature in screening buffer. This incubation was in the presence of test compounds diluted in 1% DMSO or 1% DMSO alone as a control. After 3 washes, horseradish peroxidase-coupled anti-GST antibodies were added in screening buffer and the plate incubated for 15 min at room temperature. Following additional washes, 50 µL TMB (3,3′,5,5′-tetramethylbenzidine) (Pierce Biotechnology) chromogenic substrate of horseradish peroxidase was added and the plate was incubated for 20 min before the reaction was terminated by adding 50 µL 1 N sulfuric acid to produce a yellow colour. The amount of bound protein was determined by spectrophotometric measurement in a plate reader in triplicates. Relative binding was calculated as a percentage of the DMSO control.

[4] = then wash out up to 1 h / 60 min
[5] = Tfn-A594 uptake, U2OS, 30-min preincubation, serum-free, read-out: CME IC50
[6] = U2OS, 1 h incubation, 0.1% BSA, read-out: CME IC50, 0.1% BSA
[7] = U2OS, 1 h incubation, 1% BSA, read-out: CME IC50, 1% BSA
[8] = U2OS, 1 h incubation, 1% FBS, read-out: CME IC50, 1% FBS
[9] = U2OS, 1 h incubation, 5% FBS, read-out: CME IC50, 5% FBS
[10] = U2OS, 1 h incubation, 10% FBS, read-out: CME IC50, 10% FBS
[11] = U2OS, 1 h incubation, absence of FBS or BSA, read-out: CME IC50, 1 h
[12] = MCF-7 breast cancer cells, MCF-7, MTT

T1 sequence (P02768 25-609): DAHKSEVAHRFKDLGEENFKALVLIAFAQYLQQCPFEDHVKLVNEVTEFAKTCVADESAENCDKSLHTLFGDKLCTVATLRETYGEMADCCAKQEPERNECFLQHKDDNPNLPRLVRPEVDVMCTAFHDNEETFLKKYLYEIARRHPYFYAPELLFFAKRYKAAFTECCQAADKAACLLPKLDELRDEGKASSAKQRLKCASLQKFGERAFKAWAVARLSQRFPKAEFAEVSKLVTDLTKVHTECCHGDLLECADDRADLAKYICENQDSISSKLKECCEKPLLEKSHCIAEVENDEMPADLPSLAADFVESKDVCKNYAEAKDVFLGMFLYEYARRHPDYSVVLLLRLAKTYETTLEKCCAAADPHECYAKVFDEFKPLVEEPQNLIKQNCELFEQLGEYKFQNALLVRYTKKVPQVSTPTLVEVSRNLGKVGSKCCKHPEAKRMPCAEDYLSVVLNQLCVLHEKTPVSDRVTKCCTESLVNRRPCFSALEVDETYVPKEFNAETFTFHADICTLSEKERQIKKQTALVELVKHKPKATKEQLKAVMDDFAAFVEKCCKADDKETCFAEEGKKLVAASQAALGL

Row | SMILES | bound to human serum albumin (human serum albumin) | recovery of normal non-neuronal CME after wash out [1, 4] | IC50 [1, 5] | IC50 [1, 6] | IC50 [1, 7] | IC50 [1, 8] | IC50 [1, 9] | IC50 [1, 10] | IC50 [1, 11] | IC50 (rat brain synaptosomes) | GI50 at 72 h ([2]; A431 skin cancer cells) | GI50 at 72 h ([2]; BE2-C neuroblastoma cells) | GI50 at 72 h ([2]; DU145 prostate cancer cells) | GI50 at 72 h ([2]; H460 lung cancer cells) | GI50 at 72 h ([2]; HT29 colon cancer cells) | GI50 at 72 h [2, 12] | GI50 at 72 h ([2]; SJ-G2 glioblastoma cells) | GI50 at 72 h ([2]; SW480 colon cancer cells) | GI50 at 72 h ([2]; ovarian cancer cells) | cell membrane integrity / viability by trypan blue exclusion (HeLa cells) | further results
1 | O=C(N/N=C/c1cc(O)c(O)cc1O)c1cc2ccccc2cc1O [4a, (E)-3-Hydroxy-N'-(2,4,5-trihydroxybenzylidene) -2-naphthohydrazide] | 99.4 % bound | over 80% | 5.7 ± 1 µM | 44 µM | 83 ± 12 µM | 23.7 ± 3.2 µM | 102 µM | 115 ± 7.5 µM | 6.3 ± 3.6 µM | 26.8 µM | > 50 µM | > 50 µM | > 50 µM | > 50 µM | > 50 µM | > 50 µM | > 50 µM | > 50 µM | > 50 µM | do not affect cell viability | recovery of normal non-neuronal CME after wash out ([1]; then 10 min after removal): 70%; fold less potent CME inhibition in presence of serum protein [1]: at least 20 fold; preincubation time required for complete abolition of Tfn uptake ([1]; U2OS, 10 μM): 30 min; shortest preincubation at which inhibition of CME was observed ([1]; U2OS, 10 μM): 5 min; times less potent on AP-2 binding than for dynamin I inhibition [3]: ~1000 times; IC50 ([3]; ELISA, n = 1 in triplicate): 362 µM
2 | O=C(N/N=C/c1cccc(O)c1O)c1cc2ccccc2cc1O [6a, (E)-N'-(2,3-Dihydroxybenzylidene)-3-hydroxy-2-naphthohydrazide] | 99.7 % bound | 70% | 5.8 ± 0.8 µM | 46 µM | 281 µM | 16.5 µM | 78 ± 7 µM | 108 ± 15 µM | 3.3 ± 0.6 µM | 70.1 µM | > 50 µM | > 50 µM | > 50 µM | > 50 µM | > 50 µM | > 50 µM | > 50 µM | > 50 µM | > 50 µM | do not affect cell viability | fold less potent CME inhibition in presence of serum protein [1]: at least 20 fold; times more potent than dynasore in CME assay ([1]; same conditions, U2OS Tfn uptake): six times more potent; IC50 AP-2 alpha ear binding to amphiphysin 1 ([3]; ELISA, n = 1 in triplicate): no effect
3 | O=C(N/N=C/c1ccc(O)c(O)c1)c1cc2ccccc2cc1O [Dynasore, (E)-N'-(3,4-Dihydroxybenzylidene)-3-hydroxy-2-naphthohydrazide] | 98.8 % bound |  | 34.7 ± 5.1 µM | 277 µM | 235 µM | 57.8 µM | 650 µM | 532 µM | 22.2 ± 6 µM | 184 µM | 14 ± 0.6 µM | 8.6 ± 0.4 µM | 23 ± 1.7 µM | 21 ± 1.9 µM | 12 ± 1.3 µM | 14 ± 0.3 µM | 12 ± 1.7 µM | 3.6 ± 0.1 µM | 6.7 ± 0.4 µM | do not affect cell viability | IC50 AP-2 alpha ear binding to amphiphysin 1 ([3]; ELISA, n = 1 in triplicate): no effect
